One test has as its target D(2) dopamine receptor (Homo sapiens, UniProt P14416).
The next test concerns the target T1, D(4) dopamine receptor (Homo sapiens, UniProt P21917).
T1 sequence (P21917 whole entry): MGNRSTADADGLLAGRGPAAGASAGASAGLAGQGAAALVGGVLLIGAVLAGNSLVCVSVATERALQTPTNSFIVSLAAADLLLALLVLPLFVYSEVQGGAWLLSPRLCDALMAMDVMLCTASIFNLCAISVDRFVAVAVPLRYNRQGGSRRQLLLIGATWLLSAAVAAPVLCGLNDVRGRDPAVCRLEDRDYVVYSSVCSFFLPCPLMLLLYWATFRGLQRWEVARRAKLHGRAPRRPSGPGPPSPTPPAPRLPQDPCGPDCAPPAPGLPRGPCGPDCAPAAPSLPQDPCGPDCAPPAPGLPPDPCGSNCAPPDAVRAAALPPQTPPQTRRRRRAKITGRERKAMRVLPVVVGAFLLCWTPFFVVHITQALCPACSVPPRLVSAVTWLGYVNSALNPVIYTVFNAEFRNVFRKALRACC

A further test concerns the target D(3) dopamine receptor (Homo sapiens, UniProt P35462).

Molecules are shown by their SMILES.

Sequence of D(2) dopamine receptor (P14416 whole entry): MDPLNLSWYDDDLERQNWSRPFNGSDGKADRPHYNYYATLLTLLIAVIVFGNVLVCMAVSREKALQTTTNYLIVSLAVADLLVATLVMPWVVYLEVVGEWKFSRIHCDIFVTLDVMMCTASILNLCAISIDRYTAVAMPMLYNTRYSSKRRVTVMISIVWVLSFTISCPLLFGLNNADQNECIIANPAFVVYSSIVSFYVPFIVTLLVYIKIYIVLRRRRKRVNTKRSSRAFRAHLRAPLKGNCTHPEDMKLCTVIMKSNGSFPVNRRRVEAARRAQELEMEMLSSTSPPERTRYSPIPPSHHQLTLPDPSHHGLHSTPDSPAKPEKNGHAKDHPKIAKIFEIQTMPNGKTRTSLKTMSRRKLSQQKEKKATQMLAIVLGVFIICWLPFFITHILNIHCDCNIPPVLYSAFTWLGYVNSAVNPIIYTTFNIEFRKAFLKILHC
Sequence of D(3) dopamine receptor (P35462 whole entry): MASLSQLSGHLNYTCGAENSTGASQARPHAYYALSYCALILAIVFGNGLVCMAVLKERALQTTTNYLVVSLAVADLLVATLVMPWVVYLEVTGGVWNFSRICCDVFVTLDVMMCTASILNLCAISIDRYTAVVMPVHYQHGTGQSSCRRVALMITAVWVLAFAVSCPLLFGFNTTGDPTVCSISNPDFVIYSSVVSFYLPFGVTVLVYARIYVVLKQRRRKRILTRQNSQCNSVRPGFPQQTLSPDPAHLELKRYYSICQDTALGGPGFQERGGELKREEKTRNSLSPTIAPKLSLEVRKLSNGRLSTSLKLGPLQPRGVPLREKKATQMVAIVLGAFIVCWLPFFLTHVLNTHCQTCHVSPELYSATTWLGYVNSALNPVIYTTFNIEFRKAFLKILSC
Description for D(2) dopamine receptor: Ability to displace [3H]spiperone from cloned human dopamine D2 receptor stably expressed in CHO cells
Description for D(3) dopamine receptor: Ability to displace [3H]-spiperone from cloned human dopamine D3 receptor stably expressed in CHO cells
Description for D(4) dopamine receptor: Ability to displace [3H]spiperone from cloned human dopamine D4 receptor stably expressed in HEK293 cells

By Ki is commonly meant the dissociation constant of the complex between target and ligand, obtained from inhibition or displacement. Read a low Ki as higher affinity. Regarding `c1ccc2c(c1)CCN(Cc1c[nH]c3ncccc13)C2`, the Ki on D(2) dopamine receptor is 640 nM; at D(4) dopamine receptor it was 7 nM; on D(3) dopamine receptor it was 170 nM.

Take `C1=C(/C=C/c2ccccc2)CCN(CCc2cc3ccc[nH]c-3n2)C1`: the Ki was found to be 1300 nM at D(2) dopamine receptor, 30 nM on D(4) dopamine receptor and 25 nM at D(3) dopamine receptor.

As to `c1ccc(CCC2CCN(Cc3c[nH]c4ncccc34)CC2)cc1`, the Ki at D(2) dopamine receptor was found to be 1100 nM; on D(4) dopamine receptor, 1.8 nM; on D(3) dopamine receptor, 1300 nM.

For `c1ccc(CCC2CCN(Cc3cc4ccc[nH]c-4n3)CC2)cc1`, the Ki at D(2) dopamine receptor was 200 nM; at D(4) dopamine receptor, 2 nM; on D(3) dopamine receptor, 250 nM.

With `c1c[nH]c2nc(CN3CCc4ccccc4C3)cc-2c1`, the Ki was 600 nM on D(2) dopamine receptor, 59 nM at D(4) dopamine receptor and 1100 nM on D(3) dopamine receptor.

`C1=C(c2ccccc2)CCN(CCc2c[nH]c3ncccc23)C1`: the results for the Ki at D(2) dopamine receptor, on D(4) dopamine receptor and on D(3) dopamine receptor were 21 nM, 34 nM and 10 nM, respectively.

For `C1=C(/C=C/c2ccccc2)CCN(CCc2c[nH]c3ncccc23)C1`, the figures for the Ki on D(2) dopamine receptor, on D(4) dopamine receptor and at D(3) dopamine receptor were 280 nM, 6.5 nM and 180 nM, respectively.

As for `COc1ccc(N2CCN(Cc3c[nH]c4ncccc34)CC2)cc1`, the Ki on D(2) dopamine receptor was more than 1500 nM; at D(3) dopamine receptor it was 3900 nM.

Consider `Clc1ccc(N2CCN(CCc3cc4cccnc4[nH]3)CC2)cc1`, for which the Ki at D(2) dopamine receptor is 800 nM; on D(4) dopamine receptor, 11.7 nM; at D(3) dopamine receptor, 50 nM.

`COc1ccc(N2CCN(CCc3c[nH]c4ncccc34)CC2)cc1`: the results for the Ki at D(2) dopamine receptor, at D(4) dopamine receptor and on D(3) dopamine receptor were 900 nM, 26 nM and 530 nM, respectively.

(Values after ChEMBL document CHEMBL1132519, “Synthesis and sar of 2- and 3-substituted 7-azaindoles as potential dopamine D4 ligands” (Bioorg Med Chem Lett, 1999).)
